From PMC4564171 (PLoS ONE, 2015)
“And” between values parts separate entries of the source, which are not always exact repeats. Equal entries are not always repeated.

Legend:
[1] = tested on: pvirB 1-10 (DNA, duplex) AGAATATTAT/ATAATATTCT; test: fluorescent intercalator displacement (ethidium bromide); conditions: 0.1 M NaCl; 0.1 M Tris-HCl pH 8.0; ethidium displaced; 2 μM compound, single concentration
[2] = tested on: 10 bp pvirB 51-60 FID (DNA, duplex) TAAAATAGTA/TACTATTTTA; test: as above; conditions: 0.1 M NaCl; 0.1 M Tris-HCl pH 8.0, room temperature; 7.5 μM ethidium displaced; 1.5 μM DNA; 100 μM compound
[3] = tested on: pvirB 31-40 (DNA, duplex) AATTGCATCA/TGATGCAATT; test: as above; conditions: 0.1 M NaCl; 0.1 M Tris-HCl pH 8.0; ethidium displaced; 2 μM compound, single concentration
[4] = tested on: pvirB 21-30 (DNA, duplex) AATAAAGATA/TATCTTTATT; test: as above; conditions: 0.1 M NaCl; 0.1 M Tris-HCl pH 8.0; ethidium displaced; 2 μM compound, single concentration
[5] = tested on: 60 bp pvirB FID DNA probe; test: Fluorescence intercalator displacement (FID) assay, 60 bp probe; format: binding, Shigella flexneri; conditions: for 60 bp pvirB FID probe %fluorescence: ethidium bromide 45 μM, probe 1.5 μM
Protocol: (§1) The FID protocol was based on previously published studies and was conducted in triplicate. For the assay, black, half-area, 96-well plates (Corning, Twerksbury, MA) were used. First, 70 μL of ethidium bromide in Tris Buffer (0.1 M Tris HCl, 0.1 M NaCl, pH 8.0) was added to all wells. The concentration of ethidium bromide was contingent upon the length of the DNA probe that was used. For the 60 bp pvirB FID DNA probe, the final ethidium bromide concentration used was 45 μM; whereas, for the 10 bp pvirB (51–60) FID DNA probe, the final ethidium bromide concentration used was 7.5 μM. Next, 10 μL of either pvirB FID DNA probes (10 or 60 bp) in TE/NaCl buffer (see above) or 10 μL of TE/NaCl buffer (background fluorescence control) were added to the appropriate wells of the plate. The final concentrations of the pvirB FID DNA probes were 1.5 μM. Lastly, 20 μL of test compound (either 19615 or Berenil) in 10% DMSO Tris Buffer or 20 μL of 10% DMSO Tris Buffer (100% fluorescence control) were added to the appropriate wells of the plate. The final concentrations of each test compound ranged from 12.5 μM to 100 μM. After the addition of all reagents, the plates were protected from light and allowed to equilibrate for 30 min on an orbital shaker at room temperature. Following equilibration, fluorescence was measured […] using a Biotek Synergy H1 plate reader (Winooski, VT). The average background fluorescence was subtracted from all data generated and %fluorescence was calculated for all wells containing compound via the following formula: %fluorescence=Ftest/F100%^*100 where: Ftest = the average fluorescence value obtained for each test compound and F100% = the average fluorescence value obtained for each 100% fluorescence control.

[6] = tested on: 10 bp pvirB FID DNA probes; test: Fluorescence intercalator displacement (FID) assay, 10 bp probes; format: binding, Shigella flexneri; conditions: for 10 bp pvirB 51–60 FID probe %fluorescence: ethidium bromide 7.5 μM, probe 1.5 μM
Protocol: as §1, with “The final concentrations of each test compound ranged from 12.5 μM to 100 μM.” left out

[7] = tested on: 60 bp pvirB FID (DNA, duplex) AGAATATTATTCTTTTATCCAATAAAGATAAATTGCATCAATCCAGCTATTAAAATAGTA/TACTATTTTAATAGCTGGATTGATGCAATTTATCTTTATTGGATAAAAGAATAATATTCT; test: fluorescent intercalator displacement (ethidium bromide); conditions: 0.1 M NaCl; 0.1 M Tris-HCl pH 8.0, room temperature; 45 μM ethidium displaced; 1.5 μM DNA; 100 μM compound
[8] = tested on: pvirB 11-20 (DNA, duplex) TCTTTTATCC/GGATAAAAGA; test: as above; conditions: 0.1 M NaCl; 0.1 M Tris-HCl pH 8.0; ethidium displaced; 2 μM compound, single concentration
[9] = tested on: initial S. flexneri invasion; parameters: method as in PMID 24549153, PMID 20237205; conditions: at concentrations at or below its IC50 in the reporter assay; cited from earlier work
[10] = tested on: spread of an active S. flexneri infection; conditions: at concentrations at or below their IC50s in the reporter assay; cited from earlier work

Structure (SMILES): CC(=O)NCC(=O)O.CC(=O)NCC(=O)O.N=C(N)c1ccc(N=NNc2ccc(C(=N)N)cc2)cc1 [Berenil, reference compound]
- %fluorescence [1]: 45 ± 2%
- %fluorescence [2]: 46 ± 1%
- %fluorescence [3]: 89 ± 5%
- %fluorescence [4]: 81 ± 4%
- Displacement of ethidium bromide from the pvirB DNA probes (FID) ([5]; 12.5 to 100 μM, both 60 bp and 10 bp probes): able to displace ethidium bromide
- 60 bp pvirB FID probe %fluorescence ([5]; compound 12.5 μM): 76% ± 2%
- 60 bp pvirB FID probe %fluorescence ([5]; compound 25 μM): 67% ± 2%
- 60 bp pvirB FID probe %fluorescence ([5]; compound 50 μM): 58% ± 1%
- 60 bp pvirB FID probe %fluorescence ([5]; compound 100 μM): 48% ± 2%
- %fluorescence, 10 bp fragment pvirB 21-30 ([6]; compound 2 μM, preliminary FID screen, 5'-AATAAAGATA-3'): 81% ± 4%
- %fluorescence, 10 bp fragment pvirB 31-40 ([6]; compound 2 μM, preliminary FID screen, 5'-AATTGCATCA-3'): 89% ± 5%
- %fluorescence, 10 bp fragment pvirB 1-10 ([6]; compound 2 μM, preliminary FID screen, 5'-AGAATATTAT-3'): 45% ± 2%
- %fluorescence, 10 bp fragment pvirB 41-50 ([6]; compound 2 μM, preliminary FID screen, 5'-ATCCAGCTAT-3'): 96% ± 2%
- %fluorescence, 10 bp fragment pvirB 51-60 ([6]; compound 2 μM, preliminary FID screen, 5'-TAAAATAGTA-3'): 67% and 67% ± 0%
- %fluorescence, 10 bp fragment pvirB 11-20 ([6]; compound 2 μM, preliminary FID screen, 5'-TCTTTTATCC-3'): 66% ± 0%
- 10 bp pvirB 51–60 FID probe %fluorescence ([6]; compound 12.5 μM): 52% ± 1%
- 10 bp pvirB 51–60 FID probe %fluorescence ([6]; compound 25 μM): 51% ± 2%
- 10 bp pvirB 51–60 FID probe %fluorescence ([6]; compound 50 μM): 51% ± 1%
- 10 bp pvirB 51–60 FID probe %fluorescence ([6]; compound 100 μM): 46% ± 1%
- %fluorescence [7]: 48 ± 2%
- %fluorescence [8]: 66 ± 0%

Structure (SMILES): COc1ccc(NC(=O)c2nc(S(C)(=O)=O)ncc2Cl)cc1Cl [compound 144092]
- Inhibition of initial S. flexneri invasion [9]: approximately 50%
- Inhibition of the spread of an active S. flexneri infection [10]: approximately 75%
